Patent US7214366B2, “Isolatable, water soluble, and hydrolytically stable active sulfones of poly(ethylene glycol) and related polymers for modification of surfaces and molecules” (Nektar Therapeutics AL, Corporation, priority 1993, dated 2007)

Details: pH 7

For “poly(ethylene glycol) chloroethyl sulfone [PEG chloroethyl sulfone]”, the “stability in water, NMR after extraction” value was “stable”.
